Source: the NIST ThermoML archive (doi:10.1021/acs.jced.8b01135)
Numbers after ± are expanded uncertainties.

Tests used:
[1] = Liquid; for speed of sound: Frequency=3 MHz, Single path-length method; for mass density: Vibrating tube method; for viscosity: Concentric cylinders viscometry
[2] = xn = mol fraction of the nth substance listed; details: 102 kPa, Liquid, x2 = 0; for speed of sound: Frequency=3 MHz, Single path-length method; for mass density: Vibrating tube method; for viscosity: Concentric cylinders viscometry

SMILES	speed of sound ([1]; 288.15 K, 102 kPa) [m/s]	mass density ([1]; 288.15 K, 102 kPa) [kg/m3]	viscosity ([1]; 293.15 K, 102 kPa) [mPa·s]	speed of sound ([1]; 293.15 K, 102 kPa) [m/s]	mass density ([1]; 293.15 K, 102 kPa) [kg/m3]	speed of sound ([1]; 298.15 K, 102 kPa) [m/s]	mass density ([1]; 298.15 K, 102 kPa) [kg/m3]	viscosity ([1]; 303.15 K, 102 kPa) [mPa·s]	speed of sound ([1]; 303.15 K, 102 kPa) [m/s]	mass density ([1]; 303.15 K, 102 kPa) [kg/m3]	viscosity ([1]; 313.15 K, 102 kPa) [mPa·s]	speed of sound ([1]; 313.15 K, 102 kPa) [m/s]	mass density ([1]; 313.15 K, 102 kPa) [kg/m3]	viscosity ([1]; 323.15 K, 102 kPa) [mPa·s]	speed of sound ([1]; 323.15 K, 102 kPa) [m/s]	mass density ([1]; 323.15 K, 102 kPa) [kg/m3]	viscosity ([1]; 333.15 K, 102 kPa) [mPa·s]	speed of sound ([1]; 333.15 K, 102 kPa) [m/s]	mass density ([1]; 333.15 K, 102 kPa) [kg/m3]	speed of sound ([2]; 288.15 K) [m/s]	also measured
CCCCCCC1CCCCC1 [hexylcyclohexane]	1380.4 ± 1.4	811.34 ± 0.75	2.19 ± 0.03	1360.9 ± 1.4	807.76 ± 0.75	1341.4 ± 1.4	804.19 ± 0.75	1.79 ± 0.03	1322.1 ± 1.4	800.61 ± 0.75	1.52 ± 0.03	1284.2 ± 1.4	793.43 ± 0.75	1.3 ± 0.03	1247.1 ± 1.4	786.25 ± 0.75	1.12 ± 0.03	1211 ± 1.4	779.05 ± 0.75	–	–
CCCCCCCCCCCC [dodecane] + CCCCCCCCCCCCC1CCCCC1	–	–	–	–	–	–	–	–	–	–	–	–	–	–	–	–	–	–	–	1317.2 ± 0.8	mass density ([2]; 288.15 K): 752.35 ± 0.71 kg/m3; viscosity ([2]; 293.15 K): 1.49 ± 0.02 mPa·s; speed of sound ([2]; 293.15 K): 1297.7 ± 0.8 m/s; mass density ([2]; 293.15 K): 748.72 ± 0.71 kg/m3; speed of sound ([2]; 298.15 K): 1278.2 ± 0.8 m/s; mass density ([2]; 298.15 K): 745.09 ± 0.71 kg/m3; viscosity ([2]; 303.15 K): 1.27 ± 0.02 mPa·s; speed of sound ([2]; 303.15 K): 1259 ± 0.8 m/s; mass density ([2]; 303.15 K): 741.46 ± 0.71 kg/m3; viscosity ([2]; 313.15 K): 1.08 ± 0.02 mPa·s; speed of sound ([2]; 313.15 K): 1221.1 ± 0.8 m/s; mass density ([2]; 313.15 K): 734.19 ± 0.71 kg/m3; viscosity ([2]; 323.15 K): 0.934 ± 0.021 mPa·s; speed of sound ([2]; 323.15 K): 1184 ± 0.8 m/s; mass density ([2]; 323.15 K): 726.88 ± 0.71 kg/m3; viscosity ([2]; 333.15 K): 0.813 ± 0.021 mPa·s; speed of sound ([2]; 333.15 K): 1147.8 ± 0.8 m/s; mass density ([2]; 333.15 K): 719.53 ± 0.71 kg/m3
CCCC1CCCCC1 [1-cyclohexylpropane]	1328.6 ± 1.6	797.42 ± 0.71	0.981 ± 0.031	1307.7 ± 0.6	793.53 ± 0.71	1287.1 ± 0.6	789.63 ± 0.71	0.856 ± 0.031	1266.6 ± 0.6	785.72 ± 0.71	0.75 ± 0.031	1226.2 ± 0.6	777.88 ± 0.71	0.668 ± 0.03	1186.5 ± 0.6	770 ± 0.71	0.594 ± 0.03	1147.7 ± 0.6	762.09 ± 0.71	–	speed of sound ([1]; 293.15 K, 88 kPa): 1307.7 ± 0.6 m/s; speed of sound ([1]; 303.15 K, 88 kPa): 1266.6 ± 0.6 m/s; speed of sound ([1]; 313.15 K, 88 kPa): 1226.2 ± 0.6 m/s; speed of sound ([1]; 323.15 K, 88 kPa): 1186.5 ± 0.6 m/s; speed of sound ([1]; 333.15 K, 88 kPa): 1147.7 ± 0.6 m/s
CCCCCCCCCCCC [dodecane] + CCCCCCCCCCC1CCCCC1	–	–	–	–	–	–	–	–	–	–	–	–	–	–	–	–	–	–	–	1317.2 ± 0.8	mass density ([2]; 288.15 K): 752.35 ± 0.71 kg/m3; viscosity ([2]; 293.15 K): 1.49 ± 0.02 mPa·s; speed of sound ([2]; 293.15 K): 1297.7 ± 0.8 m/s; mass density ([2]; 293.15 K): 748.72 ± 0.71 kg/m3; speed of sound ([2]; 298.15 K): 1278.2 ± 0.8 m/s; mass density ([2]; 298.15 K): 745.09 ± 0.71 kg/m3; viscosity ([2]; 303.15 K): 1.27 ± 0.02 mPa·s; speed of sound ([2]; 303.15 K): 1259 ± 0.8 m/s; mass density ([2]; 303.15 K): 741.46 ± 0.71 kg/m3; viscosity ([2]; 313.15 K): 1.08 ± 0.02 mPa·s; speed of sound ([2]; 313.15 K): 1221.1 ± 0.8 m/s; mass density ([2]; 313.15 K): 734.19 ± 0.71 kg/m3; viscosity ([2]; 323.15 K): 0.934 ± 0.021 mPa·s; speed of sound ([2]; 323.15 K): 1184 ± 0.8 m/s; mass density ([2]; 323.15 K): 726.88 ± 0.71 kg/m3; viscosity ([2]; 333.15 K): 0.813 ± 0.021 mPa·s; speed of sound ([2]; 333.15 K): 1147.8 ± 0.8 m/s; mass density ([2]; 333.15 K): 719.53 ± 0.71 kg/m3
CCCCCCCCCCC1CCCCC1 [decylcyclohexane]	1425.2 ± 0.9	821.93 ± 0.71	5.34 ± 0.04	1406.4 ± 0.9	818.54 ± 0.71	1387.7 ± 0.9	815.16 ± 0.71	4.09 ± 0.04	1369.1 ± 0.9	811.78 ± 0.71	3.23 ± 0.03	1332.8 ± 0.9	805.02 ± 0.71	2.6 ± 0.03	1297.2 ± 0.9	798.26 ± 0.71	2.15 ± 0.03	1262.7 ± 0.9	791.49 ± 0.71	–	–
CCCCCC1CCCCC1 [pentylcyclohexane]	1365.8 ± 1.1	807.78 ± 0.72	1.69 ± 0.03	1346 ± 1.1	804.13 ± 0.72	1326.4 ± 1.1	800.48 ± 0.72	1.43 ± 0.03	1306.7 ± 1.1	796.82 ± 0.72	1.21 ± 0.03	1268.2 ± 1.1	789.49 ± 0.72	1.05 ± 0.03	1230.5 ± 1.1	782.14 ± 0.72	0.914 ± 0.031	1193.5 ± 1.1	774.75 ± 0.72	–	–
CCCCCCCCCCCC [dodecane] + CCCCCCC1CCCCC1	–	–	–	–	–	–	–	–	–	–	–	–	–	–	–	–	–	–	–	1317.2 ± 0.8	mass density ([2]; 288.15 K): 752.35 ± 0.71 kg/m3; viscosity ([2]; 293.15 K): 1.49 ± 0.02 mPa·s; speed of sound ([2]; 293.15 K): 1297.7 ± 0.8 m/s; mass density ([2]; 293.15 K): 748.72 ± 0.71 kg/m3; speed of sound ([2]; 298.15 K): 1278.2 ± 0.8 m/s; mass density ([2]; 298.15 K): 745.09 ± 0.71 kg/m3; viscosity ([2]; 303.15 K): 1.27 ± 0.02 mPa·s; speed of sound ([2]; 303.15 K): 1259 ± 0.8 m/s; mass density ([2]; 303.15 K): 741.46 ± 0.71 kg/m3; viscosity ([2]; 313.15 K): 1.08 ± 0.02 mPa·s; speed of sound ([2]; 313.15 K): 1221.1 ± 0.8 m/s; mass density ([2]; 313.15 K): 734.19 ± 0.71 kg/m3; viscosity ([2]; 323.15 K): 0.934 ± 0.021 mPa·s; speed of sound ([2]; 323.15 K): 1184 ± 0.8 m/s; mass density ([2]; 323.15 K): 726.88 ± 0.71 kg/m3; viscosity ([2]; 333.15 K): 0.813 ± 0.021 mPa·s; speed of sound ([2]; 333.15 K): 1147.8 ± 0.8 m/s; mass density ([2]; 333.15 K): 719.53 ± 0.71 kg/m3
